Assay results: patent US10597388B2, “Pyridazinone herbicides” (FMC CORPORATION, priority 2014, dated 2020)

Columns and labels:
Assay in all cases: Test D controlled growth environment herbicide test, pre- and postemergence
Type in all cases: in vivo
[1] = system: bromegrass, downy (downy bromegrass, Bromus tectorum)
Procedure, shortened: (§1)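 Pre-emergence: seeds sown in silt loam soil were sprayed with compound in a non-phytotoxic solvent mix containing surfactant. Post-emergence: plants at 2 to 18 cm (1- to 4-leaf stage) in peat moss/vermiculite medium got the same formulation. Visual 0–100 rating versus controls after 14 to 21 d.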

[2] = system: buckwheat, wild (wild buckwheat, Polygonum convolvulus)
Procedure, shortened: as §1

[3] = system: kochia (Kochia scoparia)
Procedure, shortened: as §1

[4] = system: oat, wild (wild oat, Avena fatua)
Procedure, shortened: as §1

[5] = system: canarygrass (Phalaris minor)
Procedure, shortened: as §1

[6] = system: pigweed (Amaranthus retroflexus)
Procedure, shortened: as §1

[7] = system: windgrass (Apera spica-venti)
Procedure, shortened: as §1

[8] = system: chickweed (common chickweed, Stellaria media)
Procedure, shortened: as §1

[9] = system: Russian thistle (Salsola kali)
Procedure, shortened: as §1

[10] = system: barley, winter (winter barley, Hordeum vulgare)
Procedure, shortened: as §1

[11] = system: galium (catchweed bedstraw, Galium aparine)
Procedure, shortened: as §1

[12] = system: field violet (Viola arvensis)
Procedure, shortened: as §1

[13] = system: radish, wild (wild radish, Raphanus raphanistrum)
Procedure, shortened: as §1

[14] = Postemergence, 31 g ai/ha, scale 0 to 100 (0 no effect, 100 complete control)
[15] = Postemergence, 125 g ai/ha, visual rating on scale 0 (no effect) to 100 (complete control), 14 to 21 d
[16] = Postemergence, 250 g ai/ha, scale 0 to 100 (0 no effect, 100 complete control)
[17] = Preemergence, 62 g ai/ha, scale 0 to 100 (0 no effect, 100 complete control)
[18] = Preemergence, 125 g ai/ha, scale 0 to 100 (0 no effect, 100 complete control)
[19] = Preemergence, 250 g ai/ha, scale 0 to 100 (0 no effect, 100 complete control)
[20] = postemergence, 62 g ai/ha, scale 0 to 100, 0 no effect, 100 complete control

Cc1nn(C)c(=O)c(-c2c(C)sc3ccc(Cl)cc23)c1O [Compound 104]
Bromegrass, Downy plant response rating [1, 14]: 20 | Plant response rating, Bromegrass, Downy [1, 15]: 55 | Plant response rating, Bromegrass, Downy [1, 16]: 65 | Plant response rating (scale of 0 to 100), Bromegrass, Downy ([1]; Preemergence, 31 g ai/ha): 0 | Plant response rating, Bromegrass, Downy [1, 17]: 65 | Plant response rating, Bromegrass, Downy [1, 18]: 65 | Plant response rating, Bromegrass, Downy [1, 19]: 85 | Plant response rating, Bromegrass, Downy [1, 20]: 30 | Buckwheat, Wild plant response rating [2, 14]: 90 | Plant response rating, Buckwheat, Wild [2, 15]: 100 | Plant response rating, Buckwheat, Wild [2, 16]: 100 | Plant response rating (scale of 0 to 100), Buckwheat, Wild ([2]; Preemergence, 31 g ai/ha): 0 | Plant response rating, Buckwheat, Wild [2, 17]: 60 | Plant response rating, Buckwheat, Wild [2, 18]: 55 | Plant response rating, Buckwheat, Wild [2, 19]: 95 | Plant response rating, Buckwheat, Wild [2, 20]: 95 | Kochia plant response rating [3, 14]: 95 | Plant response rating, Kochia [3, 15]: 100 | Plant response rating, Kochia [3, 16]: 100 | Plant response rating (scale of 0 to 100), Kochia ([3]; Preemergence, 31 g ai/ha): 30 | Plant response rating (scale of 0 to 100), Kochia ([3]; Preemergence, 62 g ai/ha): 75 | Plant response rating, Kochia [3, 18]: 95 | Plant response rating, Kochia [3, 19]: 100 | Plant response rating, Kochia [3, 20]: 95 | Oat, Wild plant response rating [4, 14]: 85 | Plant response rating, Oat, Wild [4, 15]: 95 | Plant response rating, Oat, Wild [4, 16]: 100 | Plant response rating (scale of 0 to 100), Oat, Wild ([4]; Preemergence, 31 g ai/ha): 75 | Plant response rating (scale of 0 to 100), Oat, Wild ([4]; Preemergence, 62 g ai/ha): 80 | Plant response rating, Oat, Wild [4, 18]: 80 | Plant response rating, Oat, Wild [4, 19]: 100 | Plant response rating, Oat, Wild [4, 20]: 90 | Canarygrass plant response rating [5, 14]: 45 | Plant response rating, Canarygrass [5, 15]: 80 | Plant response rating, Canarygrass [5, 16]: 85 | Plant response rating (scale of 0 to 100), Canarygrass ([5]; Preemergence, 31 g ai/ha): 65 | Plant response rating (scale of 0 to 100), Canarygrass ([5]; Preemergence, 62 g ai/ha): 85 | Plant response rating, Canarygrass [5, 18]: 95 | Plant response rating, Canarygrass [5, 19]: 100 | Plant response rating, Canarygrass [5, 20]: 65 | Pigweed plant response rating [6, 14]: 100 | Plant response rating, Pigweed [6, 15]: 100 | Plant response rating, Pigweed [6, 16]: 100 | Plant response rating (scale of 0 to 100), Pigweed ([6]; Preemergence, 31 g ai/ha): 60 | Plant response rating (scale of 0 to 100), Pigweed ([6]; Preemergence, 62 g ai/ha): 100 | Plant response rating, Pigweed [6, 18]: 100 | Plant response rating, Pigweed [6, 19]: 100 | Plant response rating, Pigweed [6, 20]: 100 | Windgrass plant response rating [7, 14]: 55 | Plant response rating, Windgrass [7, 15]: 85 | Plant response rating, Windgrass [7, 16]: 85 | Plant response rating (scale of 0 to 100), Windgrass ([7]; Preemergence, 31 g ai/ha): 70 | Plant response rating (scale of 0 to 100), Windgrass ([7]; Preemergence, 62 g ai/ha): 75 | Plant response rating, Windgrass [7, 18]: 80 | Plant response rating, Windgrass [7, 19]: 100 | Plant response rating, Windgrass [7, 20]: 75 | Chickweed plant response rating [8, 14]: 95 | Plant response rating, Chickweed [8, 15]: 100 | Plant response rating, Chickweed [8, 16]: 100 | Plant response rating (scale of 0 to 100), Chickweed ([8]; Preemergence, 31 g ai/ha): 100 | Plant response rating (scale of 0 to 100), Chickweed ([8]; Preemergence, 62 g ai/ha): 100 | Plant response rating, Chickweed [8, 18]: 95 | Plant response rating, Chickweed [8, 19]: 100 | Plant response rating, Chickweed [8, 20]: 100 | Russian Thistle plant response rating [9, 14]: 55 | Plant response rating, Russian Thistle [9, 15]: 65 | Plant response rating, Russian Thistle [9, 16]: 85 | Plant response rating (scale of 0 to 100), Russian Thistle ([9]; Preemergence, 31 g ai/ha): 0 | Plant response rating (scale of 0 to 100), Russian Thistle ([9]; Preemergence, 62 g ai/ha): 10 | Plant response rating, Russian Thistle [9, 18]: 55 | Plant response rating, Russian Thistle [9, 19]: 75 | Plant response rating, Russian Thistle [9, 20]: 60 | Barley, Winter plant response rating [10, 14]: 0 | Plant response rating, Barley, Winter [10, 15]: 10 | Plant response rating, Barley, Winter [10, 16]: 15 | Plant response rating (scale of 0 to 100), Barley, Winter ([10]; Preemergence, 31 g ai/ha): 0 | Plant response rating, Barley, Winter [10, 17]: 0 | Plant response rating, Barley, Winter [10, 18]: 10 | Plant response rating, Barley, Winter [10, 19]: 20 | Plant response rating, Barley, Winter [10, 20]: 10 | Galium plant response rating [11, 14]: 85 | Plant response rating, Galium [11, 15]: 100 | Plant response rating, Galium [11, 16]: 100 | Plant response rating (scale of 0 to 100), Galium ([11]; Preemergence, 31 g ai/ha): 65 | Plant response rating (scale of 0 to 100), Galium ([11]; Preemergence, 62 g ai/ha): 95 | Plant response rating, Galium [11, 18]: 100 | Plant response rating, Galium [11, 19]: 100 | Plant response rating, Galium [11, 20]: 90 | Field Violet plant response rating [12, 14]: 85 | Plant response rating, Field Violet [12, 15]: 95 | Plant response rating, Field Violet [12, 16]: 98 | Plant response rating (scale of 0 to 100), Field Violet ([12]; Preemergence, 31 g ai/ha): 100 | Plant response rating (scale of 0 to 100), Field Violet ([12]; Preemergence, 62 g ai/ha): 100 | Plant response rating, Field Violet [12, 18]: 95 | Plant response rating, Field Violet [12, 19]: 100 | Plant response rating, Field Violet [12, 20]: 90 | Radish, Wild plant response rating [13, 14]: 70 | Plant response rating, Radish, Wild [13, 15]: 90 | Plant response rating, Radish, Wild [13, 16]: 95 | Plant response rating (scale of 0 to 100), Radish, Wild ([13]; Preemergence, 31 g ai/ha): 95 | Plant response rating (scale of 0 to 100), Radish, Wild ([13]; Preemergence, 62 g ai/ha): 100 | Plant response rating, Radish, Wild [13, 18]: 95 | Plant response rating, Radish, Wild [13, 19]: 100 | Plant response rating, Radish, Wild [13, 20]: 75
